Experimental data taken from publication PMC12118722, “Self-assembled peptide-dye nanostructures for in vivo tumor imaging and photodynamic toxicity” (npj Imaging, 2024).

Columns and labels:
[1] = Ex vivo biodistribution by methylene blue fluorescence of harvested organs; conditions: ex vivo IVIS fluorescence after euthanasia
Text: The vital organs of the subjects were harvested after euthanasia and analyzed for fluorescence from the methylene blue for biodistribution studies.
After the subject was euthanized, the heart, lungs, liver, spleen, kidneys, and tumor were harvested and rinsed in PBS. The organs were then imaged for fluorescence signal via IVIS Perkin-Elmer Illumination and LivingImage software.

[2] = methylene blue reference value used for the relative measurement; no reference given; cited from earlier work
Text: The optical and photoacoustic properties of the assemblies were also studied (Fig. 4). When the nanospheres and branched NPs were scanned from 400 to 700 nm for optical absorbance, both adopted a similar peak absorbance to methylene blue at 662 nm. When the peaks were normalized, there was no 614 nm shoulder growth where dimerization typically forms. While the iRGD-BNP maintained methylene blue’s distinct blue color, the iRGD-SNP samples shifted to a slightly greener color. The quantum yield for the branched NPs and the nanospheres relative to methylene blue (52%) were 43% and 31%, respect ...

HEK 293T cells = test: Competitive inhibition flow cytometry with αVβ5 primary antibodies; format: cell-based, human
Experimental: The peptide formulations were further challenged via competitive inhibition flow cytometry studies to confirm their specific interactions with integrin receptors (Fig. 3b, c). In addition to labeling as before, some cells were pre-incubated with αVβ5 primary antibodies before iRGD-BNPs or iRGD-SNPs. […] There was no observable change in fluorescence from the presence of the antibodies for HEK 293-T cells.
300,000 cells were seeded overnight. For the competitive inhibition samples, cell cultures were first treated with αVβ5 mABs ([…]) for 90 min. The cells were then treated with the iRGD-BNPs, iR GD-SNPs, or methylene blue. The cells were detached, collected at 700xG, and the media was decanted while the cells were resuspended in ice cold buffer for flow cytometry using the APC channel.

CN(C)c1ccc2nc3ccc(=[N+](C)C)cc-3sc2c1 [methylene blue]
fluorescence in vital organs [1]: nonspecific and low fluorescence in all of the vital organs
quantum yield of reference [2]: 52%
change in fluorescence with αVβ5 antibody pre-incubation (HEK 293T cells): no change in fluorescence increase
